Reference: ChEMBL document CHEMBL1130918, “Antineoplastic agents. 397: Isolation and structure of sesterstatins 4 and 5 from Hyrtios erecta (the Republic of Maldives)” (1998)
Converted amounts (≈) assume the structure as drawn.

How the values were obtained:
Assay type in all cases: functional
BXPC-3 = assay: Inhibitory activity against growth of human pancreatic cancer cell line BXPC-3 was determined
DU-145 [1] = assay: Inhibitory activity against growth of human prostate cancer cell line DU-145 was determined
FaDu = assay: Inhibitory activity against growth of human pharynx cancer cell line FADU was determined
KAT-4 cell line = assay: Inhibitory activity against growth of human thyroid cancer cell line KAT-4 was determined
NCI-H460 = assay: Inhibitory activity against growth of human lung NSC cancer cell line NCI-H460 was determined
P388 [2] = assay: Effective dose that causes inhibition of growth of P388 leukemia cells was determined; details: Mus musculus, read-out: ED50 (the source's name)
P388 [3] = assay: Inhibitory activity against growth of P388 leukemia cells was determined; details: Mus musculus
SW-1736 = assay: Inhibitory activity against growth of human thyroid cancer cell line SW1736 was determined
DU-145 [4] = assay: Inhibitory activity against growth of human prostate cancer cell line DU-145 was determined.
RPMI-7951 = assay: Inhibitory activity against growth of human melanomic cancer cell line RPMI-7951 was determined
U-251 = assay: Inhibitory activity against growth of human CNS cancer cell line U251 was determined

GI50 (BXPC-3) [µg/mL] | GI50 (DU-145 [1]) [µg/mL] | GI50 (NCI-H460) [µg/mL] | EC50 (P388 [2]) [µg/mL] | GI50 (P388 [3]) [µg/mL] | GI50 (SW-1736) [µg/mL] | GI50 (DU-145 [4]) [µg/mL] | GI50 (U-251) [µg/mL] | SMILES | GI50 (FaDu) [µg/mL] | GI50 (KAT-4 cell line) [µg/mL] | GI50 (RPMI-7951) [µg/mL]
1.6 (≈ 4.14 µM) | 1.6 (≈ 4.14 µM) | 1.8 (≈ 4.66 µM) | 4.87 (≈ 12.6 µM) | 4.9 (≈ 12.7 µM) | 2.1 (≈ 5.43 µM) |  |  | CC1(C)CCC[C@]2(C)[C@H]3C[C@@H](O)[C@]4(C)c5cocc5[C@H](O)C[C@H]4[C@]3(C)CC[C@@H]12 [SESTERSTATIN 4] | 2 (≈ 5.17 µM) | 2 (≈ 5.17 µM) | 
2.2 (≈ 5.69 µM) |  | 2.5 (≈ 6.47 µM) | > 10 | > 10 |  | 1.9 (≈ 4.91 µM) | 1.9 (≈ 4.91 µM) | CC1(C)CCC[C@]2(C)[C@H]3C[C@@H](O)[C@]4(C)c5cocc5[C@@H](O)C[C@H]4[C@]3(C)CC[C@@H]12 [SESTERSTATIN 5] | 1.9 (≈ 4.91 µM) |  | 2.1 (≈ 5.43 µM)
